This test concerns the target hTRPV3 (Homo sapiens (Human), UniProt Q8NET8). The test is described as follows: Whole-cell patch clamp, hTRPV3 Phase 1 / Phase 2 currents. It counts as cell-based. The text has this: Whole-cell patch clamp experiments permit the detection of currents through the TRPV3 channel in the cell line described above. A glass electrode is brought into contact with a single cell and the membrane is then ruptured, permitting control of the voltage of the cell membrane and measurement of currents flowing across the membrane using the amplifier attached to the electrode. A perfusion system permits control of the extracellular solution, including the addition of blockers and activators of the current. The current can be activated by heating this solution to 28° C. or warmer or by addition of 20 μM 2-APB to the solution.
TRPV3 cells were induced 20-48 hours, removed from growth plates, and replated at low density (to attain good single-cell physical separation) on glass coverslips for measurement. In some cases, cells were grown in low density overnight on glass coverslips. Patch clamp recordings were made in the whole-cell mode with a holding potential of −40 mV. Every 5 seconds, a voltage ramp was applied from −120 to +100 mV, 400 ms in duration. Currents elicited were quantified at −80 mV and +80 mV. […] External solution was Ringer's solution described above.
P1 refers to the Phase 1 current for human (h) TRPV3, and P2 refers to the Phase 2 current for human (h) TRPV3.
In Tables 3 and 4, Phase 1 refers to Phase 1 current for human (h) TRPV3 or rat (r) TRPV3, and Phase 2 refers to Phase 2 current for human (h) TRPV3 or rat (r) TRPV3. The hTRPV3 and rTRPV3 assays were performed as described herein. hERG refers to the inhibition the human ERG (hERG) channel. NaV1.5, refers to the pore forming aL-subunit of the voltage-dependent cardiac Na(+) channel and is an integral membrane protein involved in the initiation and conduction of action potentials. hTRPV3 HAMA IC50 refers to the IC50 of TRPV3 cells stably expressed in TRex-293 cells. Solubility Ringer refers to the compounds' solubility in Ringer's solution. LM T1/2 refers to liver microsome half-lives in either rat or human liver microsomes. FLIPR IC50 refers to the IC50 of the test compounds against recombinant hTRPV3 cells.
A general note: The patch-clamp technique gives a direct electrical read-out from membranes.

The mark [1] stands for this setting: Phase 1 current, inward, whole-cell patch clamp, read-out: hTRPV3 Patch P1 Inwd.
The mark [2] stands for this setting: Phase 1 current, read-out: hTRPV3 (nM) (Phase 1).
Where [3] appears, read: Phase 2 current, inward, whole-cell patch clamp, read-out: hTRPV3 Patch P2 Inwd.
Setting [4] is: Phase 2 current, read-out: hTRPV3 (nM) (Phase 2).

Each structure is given as a SMILES string. Structures can show the parent of a compound that is named as a salt. Where two headings read alike, the source gives them in different places. A value given as a limit tells only on which side of the number the result lay.

hTRPV3, sequence (Q8NET8 whole entry, the tested form may be a part): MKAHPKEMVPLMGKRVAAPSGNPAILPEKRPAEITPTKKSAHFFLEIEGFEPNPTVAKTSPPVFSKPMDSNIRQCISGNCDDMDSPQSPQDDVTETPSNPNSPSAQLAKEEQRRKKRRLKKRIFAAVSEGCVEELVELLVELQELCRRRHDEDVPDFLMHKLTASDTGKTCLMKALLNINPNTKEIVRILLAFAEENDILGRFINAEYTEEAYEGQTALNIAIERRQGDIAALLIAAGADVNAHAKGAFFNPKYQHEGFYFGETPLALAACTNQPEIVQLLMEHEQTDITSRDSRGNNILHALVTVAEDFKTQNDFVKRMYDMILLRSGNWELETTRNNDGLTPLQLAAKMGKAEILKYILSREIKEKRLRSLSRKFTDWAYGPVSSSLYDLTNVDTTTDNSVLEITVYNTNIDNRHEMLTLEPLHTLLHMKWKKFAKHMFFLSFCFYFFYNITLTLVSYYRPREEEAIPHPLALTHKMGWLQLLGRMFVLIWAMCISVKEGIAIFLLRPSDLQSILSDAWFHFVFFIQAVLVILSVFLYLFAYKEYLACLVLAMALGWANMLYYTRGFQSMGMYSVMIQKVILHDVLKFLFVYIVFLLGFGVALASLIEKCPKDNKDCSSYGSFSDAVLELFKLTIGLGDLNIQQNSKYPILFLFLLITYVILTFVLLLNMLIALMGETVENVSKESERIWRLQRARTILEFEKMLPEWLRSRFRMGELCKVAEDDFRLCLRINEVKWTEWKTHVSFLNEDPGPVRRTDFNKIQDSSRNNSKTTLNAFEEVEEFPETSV

On to `O=C1C(Oc2ccc3ccccc3n2)CCN1c1ccccc1Cl` (centres unmarked) [Compound 1-106, 1-(2-chlorophenyl)-3-(quinolin-2-yloxy)pyrrolidin-2-one], for which the IC50 is above 1000 nM under setting [1], above 3200 nM under setting [2], above 1000 nM under setting [3] and above 3200 nM under setting [4].
As for `NC(=O)c1cc(-c2ncc[nH]2)ccc1N1CC[C@@H](Oc2ccc(C(F)(F)F)cn2)C1` [Compound 1-107, (R)-5-(1H-imidazol-2-yl)-2-(3-(5-(trifluoromethyl)pyridin-2-yloxy)pyrrolidin-1-yl)benzamide], the IC50 reads like this: under setting [1], above 1000 nM; under setting [2], above 1000 nM; under setting [3], above 1000 nM; under setting [4], above 1000 nM.
Regarding `N#Cc1cc(-c2ccccc2)ccc1N1CCC(Oc2ccc3ccccc3n2)C1=O` (centres unmarked) [Compound 1-108, 4-(2-oxo-3-(quinolin-2-yloxy)pyrrolidin-1-yl)biphenyl-3-carbonitrile], the IC50 by setting is: under setting [3], above 1000 nM; under setting [4], above 3200 nM.
Turning to `COc1cc(-c2ccccc2Cl)ccc1N1CC[C@@H](Oc2ccc(C(F)(F)F)cn2)C1` [Compound 1-112, (R)-2-(1-(2′-chloro-3-methoxybiphenyl-4-yl)pyrrolidin-3-yloxy)-5-(trifluoromethyl)pyridine], the IC50 under setting [1] was above 1000 nM and the IC50 under setting [2] is around 2900 nM. The “hTRPV3 (nM) (Phase 2)” value (Phase 2 current) is “Incomplete Block”.
Consider `NC(=O)c1cc(-c2ccccc2Cl)ccc1N1CCC(Oc2ccc3ccccc3n2)C1=O` (centres unmarked) [Compound 1-114, 2′-chloro-4-(2-oxo-3-(quinolin-2-yloxy)pyrrolidin-1-yl)biphenyl-3-carboxamide], for which the IC50 under setting [1] is above 1000 nM, the IC50 under setting [2] was around 3900 nM, the IC50 under setting [3] was above 1000 nM and the IC50 under setting [4] was around 3150 nM.
Take `Nc1cc(-c2ccccc2Cl)ccc1N1CC[C@@H](Oc2ccc(C(F)(F)F)cn2)C1` [Compound 1-116]: under “Phase 1 current”, the “hTRPV3 (nM) (Phase 1)” value was “Agonist/ Antagonist (Phase 1) Agonist/ Antagonist (Phase 2)”. The “hTRPV3 (nM) (Phase 2)” value (Phase 2 current) is on record as “Agonist/ Antagonist (Phase 1) Agonist/ Antagonist (Phase 2)”.
Take `NCc1cc(-c2ccccc2Cl)ccc1N1CC[C@H](Oc2ccc(C(F)(F)F)cn2)C1` [Compound 1-118, (S)-(2′-chloro-4-(3-(5-(trifluoromethyl)pyridin-2-yloxy)pyrrolidin-1-yl)biphenyl-3-yl)methanamine]: the IC50 under setting [1] is above 1000 nM, the IC50 under setting [2] is around 1300 nM, the IC50 under setting [3] is above 1000 nM and the IC50 under setting [4] is below 3200 nM.
As to `NCc1cc(-c2ccccc2)ccc1N1CC[C@H](Oc2ccc(C(F)(F)F)cn2)C1` [Compound 1-119, (S)-(4-(3-(5-(trifluoromethyl)pyridin-2-yloxy)pyrrolidin-1-yl)biphenyl-3-yl)methanamine], the IC50 is above 1000 nM under setting [3] and above 3200 nM under setting [4].
As to `COc1cc(-c2ccccc2)ccc1N1CC[C@@H](Oc2ncc(C(F)(F)F)cc2Cl)C1` [Compound 1-120, (R)-3-chloro-2-(1-(3-methoxybiphenyl-4-yl)pyrrolidin-3-yloxy)-5-(trifluoromethyl)pyridine], the IC50 is above 3200 nM under setting [2]; above 3200 nM under setting [4]; above 1000 nM (hTRPV3 Patch P1 Inwd (nM), Phase 1 current, inward, whole-cell patch clamp); above 1000 nM (hTRPV3 Patch P2 Inwd (nM), Phase 2 current, inward, whole-cell patch clamp).
Turning to `NCc1cc(-c2ccccc2Cl)ccc1N1CC[C@H](Oc2ncccc2Cl)C1` [Compound 1-122, (S)-(2′-chloro-4-(3-(3-chloropyridin-2-yloxy)pyrrolidin-1-yl)biphenyl-3-yl)methanamine hydrochloride], the IC50 runs as follows: under setting [1], above 1000 nM; under setting [2], above 3200 nM; under setting [3], above 1000 nM; under setting [4], below 3200 nM.
Turning to `NC(=O)c1cc(-c2ccccc2)ccc1N1CCC(Oc2ccc3ccccc3n2)C1=O` (centres unmarked) [Compound 1-123, 4-(2-oxo-3-(quinolin-2-yloxy)pyrrolidin-1-yl)biphenyl-3-carboxamide], the IC50 is above 1000 nM under setting [1] and above 3200 nM under setting [2].
On to `NC(=O)c1cc(Oc2ccccc2)ccc1N1CC[C@H](Oc2ccc(C(F)(F)F)cn2)C1` [Compound 1-124, (S)-5-phenoxy-2-(3-(5-(trifluoromethyl)pyridin-2-yloxy)pyrrolidin-1-yl)benzamide], for which the IC50 is 100 to 1000 nM (hTRPV3 Patch P1 Inwd (nM)) and 729 nM (read-out: hTRPV3 (nM) (Phase 1)).
Consider `NCc1cc(-c2ccccc2)ccc1N1CC[C@H](Oc2ncccc2Cl)C1` [Compound 1-125, (S)-(4-(3-(3-chloropyridin-2-yloxy)pyrrolidin-1-yl)biphenyl-3-yl)methanamine hydrochloride], for which the IC50 is above 1000 nM under setting [3] and above 3200 nM under setting [4].
For `OCc1cc(-c2ccccc2)ccc1N1CC[C@H](Oc2ncccc2Cl)C1` [Compound 1-126, (S)-(4-(3-(3-chloropyridin-2-yloxy)pyrrolidin-1-yl)biphenyl-3-yl)methanol] the same measures were 100 to 1000 nM and 369 nM.
The like results for `CC(=O)NCc1cc(-c2ccccc2Cl)ccc1N1CC[C@H](Oc2ccc(C(F)(F)F)cn2)C1` [Compound 1-127, (S)—N-((2′-chloro-4-(3-(5-(trifluoromethyl)pyridin-2-yloxy)pyrrolidin-1-yl)biphenyl-3-yl)methyl)acetamide] were, in that order, above 1000 nM and 1140 nM.
As for `NC(=O)c1ccc(O[C@H]2CCN(c3ccc(-c4ccccc4)cc3CO)C2)nc1` [Compound 1-144, (S)-6-(1-(3-(hydroxymethyl)biphenyl-4-yl)pyrrolidin-3-yloxy)nicotinamide], the IC50 reads like this: under setting [1], above 1000 nM; under setting [2], 1280 nM; under setting [3], above 1000 nM; under setting [4], 4220 nM.
Consider `NC(=O)c1cc(Cc2ccccc2)ccc1N1CC[C@H](Oc2ncccc2Cl)C1` [Compound 1-145, (S)-5-benzyl-2-(3-(3-chloropyridin-2-yloxy)pyrrolidin-1-yl)benzamide], for which the IC50 under setting [1] is above 1000 nM, the IC50 under setting [2] is 1950 nM, the IC50 under setting [3] is 100 to 1000 nM and the IC50 under setting [4] came to 749 nM.
Turning to `OCc1cc(-c2ccccc2)ccc1N1CC[C@H](Oc2ccc(Cl)cn2)C1` [Compound 1-147, (S)-(4-(3-(5-chloropyridin-2-yloxy)pyrrolidin-1-yl)biphenyl-3-yl)methanol], the IC50 is 100 to 1000 nM under setting [1] and 171 nM under setting [2].
For the compound `OCC(O)c1cc(-c2ccccc2)ccc1N1CC[C@H](Oc2ccc(C(F)(F)F)cn2)C1` (stereo partly drawn) [Compound 1-148, 1-(4-((S)-3-(5-(trifluoromethyl)pyridin-2-yloxy)pyrrolidin-1-yl)biphenyl-3-yl)ethane-1,2-diol], the IC50 is 100 to 1000 nM under setting [1], 550 nM under setting [2], 100 to 1000 nM under setting [3] and 699 nM under setting [4].
Consider `CCc1ccccc1-c1ccc(N2CC[C@H](Oc3ccc(C(F)(F)F)cn3)C2)c(CO)c1` [Compound 1-149, (S)-(2′-ethyl-4-(3-(5-(trifluoromethyl)pyridin-2-yloxy)pyrrolidin-1-yl)biphenyl-3-yl)methanol], for which the IC50 is 10 to 100 nM under setting [1], 34.7 nM under setting [2], below 10 nM under setting [3] and 10.7 nM under setting [4].
For `OCc1cc(-c2ccccc2F)ccc1N1CC[C@H](Oc2ccc(C(F)(F)F)cn2)C1` [Compound 1-150, (S)-(2′-fluoro-4-(3-(5-(trifluoromethyl)pyridin-2-yloxy)pyrrolidin-1-yl)biphenyl-3-yl)methanol] the same measures were 10 to 100 nM, 71.7 nM, 10 to 100 nM and 74.7 nM.

(Values after patent publication US12435061B2 (priority 2020, dated 2025).)
